Data published in US10894807B2 (Siemens Medical Solutions USA, Inc., priority 2011, dated 2021).
Values joined by “and” are separate entries in the source; they are usually repeats but may differ in a detail not shown here. Identical values can stand only once.

Molecular target: human PSMA (Homo sapiens (Human), UniProt Q04609)
Experiment: Enzymatic assay for in vitro evaluation of PSMA inhibitors (fluorescent assay of PSMA activity, NAAG substrate, OPA detection of glutamate)
Format: biochemical

human PSMA, sequence (Q04609 whole entry): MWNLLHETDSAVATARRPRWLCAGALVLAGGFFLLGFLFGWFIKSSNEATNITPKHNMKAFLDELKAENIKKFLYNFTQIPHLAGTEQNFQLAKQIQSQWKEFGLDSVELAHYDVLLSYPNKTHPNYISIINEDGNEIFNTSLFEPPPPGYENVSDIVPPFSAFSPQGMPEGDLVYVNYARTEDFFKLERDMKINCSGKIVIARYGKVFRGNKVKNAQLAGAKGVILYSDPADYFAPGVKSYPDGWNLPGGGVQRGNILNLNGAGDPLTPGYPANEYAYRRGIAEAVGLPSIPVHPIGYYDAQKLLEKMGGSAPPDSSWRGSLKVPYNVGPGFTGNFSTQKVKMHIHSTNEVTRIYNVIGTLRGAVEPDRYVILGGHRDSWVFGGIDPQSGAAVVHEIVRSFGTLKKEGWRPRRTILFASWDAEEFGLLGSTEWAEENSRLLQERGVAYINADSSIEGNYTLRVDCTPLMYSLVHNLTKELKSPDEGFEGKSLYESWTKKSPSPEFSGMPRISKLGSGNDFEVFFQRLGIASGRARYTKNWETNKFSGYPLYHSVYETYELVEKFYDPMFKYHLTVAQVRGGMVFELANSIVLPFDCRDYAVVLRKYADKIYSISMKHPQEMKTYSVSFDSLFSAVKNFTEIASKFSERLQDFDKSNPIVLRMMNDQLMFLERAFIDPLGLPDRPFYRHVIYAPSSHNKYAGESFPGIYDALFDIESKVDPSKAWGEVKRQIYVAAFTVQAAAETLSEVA

Row | SMILES | Ki | PSMA Blkg % (1.0 μM)
1 | O=C(O)CC[C@H](NC(=O)N[C@@H](CCCCNC(=O)c1cc(NC(=O)Cn2cc(CCCF)nn2)cc(C(=O)NCCCC[C@H](NC(=O)N[C@@H](CCC(=O)O)C(=O)O)C(=O)O)c1)C(=O)O)C(=O)O [P283, (2S,2′S)-2,2′-(((((1S,1′S)-((5-(2-(4-(3-fluoropropyl)-1H-1,2,3-triazol-1-yl)acetamido)isophthaloyl)bis(azanediyl))bis(1-carboxypentane-5,1-diyl))bis(azanediyl))bis(carbonyl))bis(azanediyl))dipentanedioic Acid] | 0.9 nM | 98%
2 | O=C(O)CC[C@H](NC(=O)N[C@@H](CC1CCN(C(=O)c2cc(C(=O)O)cc(-n3cc(CCCF)nn3)c2)CC1)C(=O)O)C(=O)O [P284, (S)-2-(3-((S)-1-Carboxy-2-(1-(3-carboxy-5-(4-(3-fluoropropyl)-1H-1,2,3-triazol-1-yl)benzoyl)piperidin-4-yl)ethyl)ureido)pentanedioic Acid] | – | 96%
3 | O=C(O)CCC(NC(=O)N[C@@H](Cc1ccc(NC(=O)CCC(CCC(=O)Nc2ccc(CC(NC(=O)N[C@@H](CCC(=O)O)C(=O)O)C(=O)O)cc2)(CCC(=O)Nc2ccc(C[C@H](NC(=O)NC(CCC(=O)O)C(=O)O)C(=O)O)cc2)NC(=O)CCCCn2cc(CCCF)nn2)cc1)C(=O)O)C(=O)O (stereo partly drawn) [P285, (2S,2′S)-2,2′-(((((1S,1′S)-(((4-(3-((4-((S)-2-Carboxy-2-(3-((S)-1,3-dicarboxypropyl)ureido)ethyl)phenyl)amino)-3-oxopropyl)-4-(5-(4-(3-fluoropropyl)-1H-1,2,3-triazol-1-yl)pentanamido)heptanedioyl)bis(azanediyl))bis(4,1-phenylene))bis(1-carboxyethane-2,1-diyl))bis(azanediyl))bis(carbonyl))bis(azanediyl))dipentanedioic Acid] | 0.5 nM | –
4 | O=C(O)CC[C@H](NC(=O)N[C@@H](CCCCNC(=O)c1cc(C(=O)N2CCN(C(=O)Nc3ccc(C[C@H](NC(=O)N[C@@H](CCC(=O)O)C(=O)O)C(=O)O)cc3)CC2)cc(-n2cc(CCCF)nn2)c1)C(=O)O)C(=O)O [P286, (S)-2-(3-((S)-1-Carboxy-2-(4-(4-(3-(((S)-5-carboxy-5-(3-((S)-1,3-dicarboxypropyl)ureido)pentyl)carbamoyl)-5-(4-(3-fluoropropyl)-1H-1,2,3-triazol-1-yl)benzoyl)piperazine-1-carboxamido)phenyl)ethyl)ureido)pentanedioic Acid] | 12.5 nM | 92%
5 | O=C(O)CCC(NC(=O)N[C@@H](CCCCNC(=O)CCC(CCC(=O)NCCCC[C@H](NC(=O)NC(CCC(=O)O)C(=O)O)C(=O)O)(CCC(=O)NCCCC[C@H](NC(=O)NC(CCC(=O)O)C(=O)O)C(=O)O)NC(=O)c1ccc(-n2cc(CCCF)nn2)cc1)C(=O)O)C(=O)O (stereo partly drawn) [P287, (3S,7S,25S,29S)-16-(3-(((S)-5-Carboxy-5-(3-((S)-1,3-dicarboxypropyl)ureido)pentyl)amino)-3-oxopropyl)-16-(4-(4-(3-fluoropropyl)-1H-1,2,3-triazol-1-yl)benzamido)-5,13,19,27-tetraoxo-4,6,12,20,26,28-hexaazahentriacontane-1,3,7,25,29,31-hexacarboxylic Acid] | 1 nM | 95%
6 | NCCOCCOCCOCCOCc1cn(-c2cc(C(=O)NCCCC[C@H](NC(=O)N[C@@H](CCC(=O)O)C(=O)O)C(=O)O)cc(C(=O)NCCCC[C@H](NC(=O)N[C@@H](CCC(=O)O)C(=O)O)C(=O)O)c2)nn1 [P288, (2S,2′S)-2,2′-(((((1S,1′S)-((5-(4-(13-Amino-2,5,8,11-tetraoxatridecyl)-1H-1,2,3-triazol-1-yl)isophthaloyl)bis(azanediyl))bis(1-carboxypentane-5,1-diyl))bis(azanediyl))bis(carbonyl))-bis(azanediyl))dipentanedioic Acid] | 9.7 nM | 85%
7 | [N-]=[N+]=Nc1cc(C(=O)NCCCCCC(=O)N[C@@H](CCC(=O)O)C(=O)O)cc(C(=O)NCCCCCC(=O)N[C@@H](CCC(=O)O)C(=O)O)c1 [P289, (2S,2′S)-2,2′-((6,6′-((5-Azidoisophthaloyl)bis(azanediyl))bis(hexanoyl))-bis(azanediyl))dipentanedioic Acid] | – | 0%
8 | O=C(O)CC[C@H](NC(=O)NCCCCCNC(=O)c1cc(C(=O)NCCCCCNC(=O)N[C@@H](CCC(=O)O)C(=O)O)cc(-n2cc(CCCF)nn2)c1)C(=O)O [P290, (2S,2′S)-2,2′-((((((5-(4-(3-Fluoropropyl)-1H-1,2,3-triazol-1-yl)isophthaloyl)bis(azanediyl))bis(pentane-5,1-diyl))bis(azanediyl))bis(carbonyl))-bis(azanediyl))dipentanedioic Acid] | – | 0%
9 | O=C(O)CC[C@H](NC(=O)N[C@@H](Cc1ccc(NC(=O)CCC(CCC(=O)Nc2ccc(C[C@H](NC(=O)N[C@@H](CCC(=O)O)C(=O)O)C(=O)O)cc2)(CCC(=O)Nc2ccc(C[C@H](NC(=O)N[C@@H](CCC(=O)O)C(=O)O)C(=O)O)cc2)NC(=O)Cn2cc(CCCF)nn2)cc1)C(=O)O)C(=O)O [P291, (2S,2′S)-2,2′-(((((1S,1′S)-((((4S)-4-(3-((4-((2S)-2-Carboxy-2-(3-(1,3-dicarboxypropyl)-ureido)ethyl)phenyl)amino)-3-oxopropyl)-4-(2-(4-(3-fluoropropyl)-1H-1,2,3-triazol-1-yl)acetamido)heptanedioyl)bis(azanediyl))bis(4,1-phenylene))bis(1-carboxyethane-2,1-diyl))bis(azanediyl))bis(carbonyl))bis(azanediyl))dipentanedioic Acid] | 5 nM | 95%
10 | O=C(O)CC[C@H](NC(=O)[C@H](CC(=O)O)NC(=O)CCCNC(=O)c1cc(C(=O)NCCCC(=O)N[C@@H](CC(=O)O)C(=O)N[C@@H](CCC(=O)O)C(=O)O)cc([N+](=O)[O-])c1)C(=O)O [P293, (2S,2′S)-2,2′-(((2S,2′S)-2,2′-((4,4′-((5-Nitroisophthaloyl)bis(azanediyl))bis(butanoyl))-bis(azanediyl))bis(3-carboxypropanoyl))bis(azanediyl))dipentanedioic Acid] | – | 45% and 90%
11 | NCCOCCOCCOCCOCc1cn(-c2cc(C(=O)Nc3ccc(C[C@H](NC(=O)N[C@@H](CCC(=O)O)C(=O)O)C(=O)O)cc3)cc(C(=O)Nc3ccc(C[C@H](NC(=O)N[C@@H](CCC(=O)O)C(=O)O)C(=O)O)cc3)c2)nn1 [P294, (2S,2′S)-2,2′-(((((1S,1′S)-(((5-(4-(13-Amino-2,5,8,11-tetraoxatridecyl)-1H-1,2,3-triazol-1-yl)isophthaloyl)bis(azanediyl))bis(4,1-phenylene))bis(1-carboxyethane-2,1-diyl))-bis(azanediyl))bis(carbonyl))bis(azanediyl))dipentanedioic Acid] | – | 99%
12 | O=C(O)CC[C@@H](NC(=O)N[C@@H](CCCCNC(=O)OCc1ccccc1)C(=O)O)C(=O)O [P295, (9S,13R)-3,11-Dioxo-1-phenyl-2-oxa-4,10,12-triazapentadecane-9,13,15-tricarboxylic Acid] | – | 45%
13 | O=C(O)CC[C@H](NC(=O)C[C@@H](NC(=O)CCCCCNC(=O)c1cc(C(=O)NCCCCCC(=O)N[C@H](CC(=O)N[C@@H](CCC(=O)O)C(=O)O)C(=O)O)cc([N+](=O)[O-])c1)C(=O)O)C(=O)O [P296, (2S,2′S)-2,2′-(((3R,3′R)-3,3′-((6,6′-((5-nitroisophthaloyl)bis(azanediyl))bis(hexanoyl))-bis(azanediyl))bis(3-carboxypropanoyl))bis(azanediyl))dipentanedioic Acid] | – | 72%
